Molecules are shown by their SMILES.

The text below walks through data of ChEMBL document CHEMBL1126161, “3,4-Dihydroquinolin-2(1H)-ones as combined inhibitors of thromboxane A2 synthase and cAMP phosphodiesterase” (J Med Chem, 1992).

Experiment [1] concerns Rattus norvegicus. The experiment is described as follows: Antihypertensive activity in conscious spontaneously hypertensive rat (SHR), percent change in heart rate (beats/min) after 1 hr at 10 mg/kg peroral dose. The experiment is classed as functional. Particulars: route oral.
Experiment [2] has as its system Rattus norvegicus. The experiment is described as follows: Antihypertensive activity in conscious spontaneously hypertensive rat (SHR), percent change in heart rate (beats/min) after 2 hr at 10 mg/kg peroral dose. The format is functional. Particulars: route oral.
Experiment [3] deals with Rattus norvegicus. Briefly: Antihypertensive activity in conscious spontaneously hypertensive rat (SHR), percent change in heart rate (beats/min) after 4 hr at 10 mg/kg peroral dose. The following applies: route oral. The format is functional.
The test system of experiment [4] is Rattus norvegicus. The experiment is described as follows: Antihypertensive activity in conscious spontaneously hypertensive rat (SHR), percent change in Systolic blood pressure (SBP) after 4 hr at 10 mg/kg peroral dose. The experiment is classed as functional. Particulars: route oral.
Experiment [5] relates to Rattus norvegicus. Briefly: Antihypertensive activity in conscious spontaneously hypertensive rat (SHR), percent change in Systolic blood pressure (SBP) after 2 hr at 10 mg/kg peroral dose. The experiment is classed as functional. Particulars: route oral.
In experiment [6] the test system is Rattus norvegicus. Briefly: Antihypertensive activity in conscious spontaneously hypertensive rat (SHR), percent change in Systolic blood pressure (SBP) after 1 hr at 10 mg/kg peroral dose. The experiment is classed as functional. The following applies: route oral.
For experiment [7], the species on record is Mus musculus. Briefly: Time course of protection against mortality in a pulmonary thromboembolism model in mice after -3h. The experiment is classed as functional.
Experiment [8] is filed under the species Homo sapiens. Briefly: Inhibition of [14C]arachidonic acid induced TXB2 formation at 5 uM (Control TXB2 = 14.9+/-2.5).
Experiment [9] relates to Mus musculus. Briefly: Protection against mortality in pulmonary thromboembolism model in mice at 9 mg/kg. The experiment is classed as functional.
Experiment [10] has as its system Mus musculus. The experiment is described as follows: Protection against mortality in pulmonary thromboembolism model in mice at 1 mg/kg. The experiment is classed as functional.
The subject of experiment [11] is Rattus norvegicus. Briefly: Ex vivo inhibition of blood platelet aggregation in rats at 100 mg/kg peroral dose after 3 hr. The format is functional. The following applies: route oral.
The species named for experiment [12] is Homo sapiens. Briefly: Inhibition of [14C]arachidonic acid induced platelet aggregation at 50 uM (Control TXB2 = 14.9+/-2.5). The format is functional.
The test system of experiment [13] is Rattus norvegicus. The experiment is described as follows: Effect of TXA2 synthase inhibitor (compound) on serum TXB2 level in rats at 50 mg/kg po, after 2 hr. The format is functional.
Experiment [14] has as its system Rattus norvegicus. The experiment is described as follows: Ex vivo inhibition of blood platelet aggregation in rats at 100 mg/kg peroral dose after 5 hr. The format is functional. The following applies: route oral.
Experiment [15] relates to Mus musculus. Briefly: Protection against mortality in pulmonary thromboembolism model in mice at 12 mg/kg. The experiment is classed as functional.
For experiment [16], the species on record is Mus musculus. The experiment is described as follows: Time course of protection against mortality in a pulmonary thromboembolism model in mice after -7h. The format is functional.
For experiment [17], the species on record is Mus musculus. The experiment is described as follows: Time course of protection against mortality in a pulmonary thromboembolism model in mice after -5h. The experiment is classed as functional.
Experiment [18] relates to Mus musculus. Briefly: Protection against mortality in pulmonary thromboembolism model in mice at 30 mg/kg. The experiment is classed as functional.
Experiment [19] has as its system Rattus norvegicus. Briefly: Ex vivo inhibition of blood platelet aggregation in rats at 100 mg/kg peroral dose after 8 hr. The experiment is classed as functional. The following applies: route oral.
For experiment [20], the species on record is Mus musculus. Briefly: Time course of protection against mortality in a pulmonary thromboembolism model in mice after -1h. The format is functional.
For experiment [21], the species on record is Homo sapiens. Briefly: Inhibition of [14C]arachidonic acid induced platelet aggregation at 50 uM (Control 6-keto-PGF1-alpha = 1.45+/-0.6). The format is functional.
The test system of experiment [22] is Rattus norvegicus. Briefly: Antihypertensive activity in conscious spontaneously hypertensive rat (SHR), percent change in Systolic blood pressure (SBP) after 1 hr. The experiment is classed as functional.
The subject of experiment [23] is Mus musculus. Briefly: Protection against mortality in pulmonary thromboembolism model in mice at 10 mg/kg. The experiment is classed as functional.
The subject of experiment [24] is Rattus norvegicus. Briefly: Ex vivo inhibition of blood platelet aggregation in rats at 50 mg/kg peroral dose after 8 hr. The format is functional. The following applies: route oral.
The test system of experiment [25] is Rattus norvegicus. The experiment is described as follows: Antihypertensive activity in conscious spontaneously hypertensive rat (SHR), percent change in Systolic blood pressure (SBP) after 2 hr. The format is functional.
The species entered for experiment [26] is Homo sapiens. Briefly: In vitro inhibition of ADP-induced aggregation of human PRP in the presence of pig aortal microsomes (PAM). The format is functional.
In experiment [27] the test system is Rattus norvegicus. Briefly: Antihypertensive activity in conscious spontaneously hypertensive rat (SHR), percent change in Systolic blood pressure (SBP) after 4 hr. The experiment is classed as functional.
Experiment [28] is filed under the species Homo sapiens. The experiment is described as follows: Ratio of IC50(w/oPAM)/IC50(w/PAM). The experiment is classed as functional.
The species named for experiment [29] is Homo sapiens. The experiment is described as follows: Inhibition of ADP-induced aggregation of human PRP in the absence of pig aortal microsomes (PAM). The experiment is classed as functional.
The species entered for experiment [30] is Homo sapiens. The experiment is described as follows: Inhibition of [14C]arachidonic acid induced 6-keto-PGF1-alpha formation at 10 uM (Control 6-keto-PGF1-alpha = 1.45+/-0.6).
For experiment [31], the species on record is Homo sapiens. The experiment is described as follows: Ratio of IC50(PDE)/IC50(TXA2). The format is functional.
The test system of experiment [32] is Mus musculus. Briefly: Protection against mortality in pulmonary thromboembolism model in mice at 3 mg/kg. The experiment is classed as functional.
For experiment [33], the species on record is Homo sapiens. The experiment is described as follows: Inhibition of [14C]arachidonic acid induced platelet TXB2 formation at 0.1 uM (Control TXB2 = 14.9+/-2.5).
Experiment [34] relates to Rattus norvegicus. The experiment is described as follows: Ex vivo inhibition of blood platelet aggregation in rats at 50 mg/kg peroral dose after 5 hr. The experiment is classed as functional. The following applies: route oral.
A further experiment concerns the target T1, Thromboxane-A synthase (Homo sapiens, UniProt P24557).
T1 sequence (P24557 whole entry): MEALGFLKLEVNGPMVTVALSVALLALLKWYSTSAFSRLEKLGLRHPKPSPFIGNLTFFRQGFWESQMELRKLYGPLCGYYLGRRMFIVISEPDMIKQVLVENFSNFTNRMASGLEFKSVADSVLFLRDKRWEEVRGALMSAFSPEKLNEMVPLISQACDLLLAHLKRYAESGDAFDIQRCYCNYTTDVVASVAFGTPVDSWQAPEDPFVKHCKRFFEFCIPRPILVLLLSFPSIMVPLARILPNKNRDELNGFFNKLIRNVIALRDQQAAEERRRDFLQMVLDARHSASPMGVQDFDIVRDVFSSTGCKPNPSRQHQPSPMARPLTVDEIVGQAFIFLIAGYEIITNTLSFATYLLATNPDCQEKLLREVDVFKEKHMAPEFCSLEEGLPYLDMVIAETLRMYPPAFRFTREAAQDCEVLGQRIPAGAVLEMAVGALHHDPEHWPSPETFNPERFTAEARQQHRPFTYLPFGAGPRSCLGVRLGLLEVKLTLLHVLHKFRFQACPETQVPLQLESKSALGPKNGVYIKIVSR
Briefly: Compound was evaluated for the inhibition of human blood platelet, thromboxane A2 synthase.

The species entered for experiment [35] is Homo sapiens. Briefly: Inhibition of [14C]arachidonic acid conversion to 6-keto-PGF1-alpha in platelets at 1 uM (Control 6-keto-PGF1-alpha = 1.45+/-0.6).
In experiment [36] the test system is Rattus norvegicus. Briefly: Ex vivo inhibition of blood platelet aggregation in rats at 50 mg/kg peroral dose after 3 hr. The format is functional. The following applies: route oral.
For experiment [37], the species on record is Homo sapiens. Briefly: Inhibition of [14C]arachidonic acid induced platelet aggregation at 1 uM (Control TXB2 = 14.9+/-2.5). The experiment is classed as functional.
The next experiment addresses Phosphodiesterase 3 (Homo sapiens, UniProt Q14432+Q13370). Briefly: Inhibition of human blood platelet c-AMP phosphodiesterase.
For experiment [38], the species on record is Homo sapiens. The experiment is described as follows: Inhibition of [14C]arachidonic acid induced platelet aggregation at 10 uM (Control TXB2 = 14.9+/-2.5). The format is functional.
Experiment [39] relates to Rattus norvegicus. The experiment is described as follows: Antihypertensive activity in conscious spontaneously hypertensive rat (SHR), percent change in heart rate (beats/min) after 4 hr. The format is functional.
Experiment [40] has as its system Rattus norvegicus. Briefly: Antihypertensive activity in conscious spontaneously hypertensive rat (SHR), percent change in heart rate (beats/min) after 2 hr. The format is functional.
The subject of experiment [41] is Rattus norvegicus. The experiment is described as follows: Effect of TXA2 synthase inhibitor (compound) on serum TXB2 level in rats at 50 mg/kg po, after 2 hr. The experiment is classed as functional.
Experiment [42] relates to Rattus norvegicus. Briefly: Antihypertensive activity in conscious spontaneously hypertensive rat (SHR), percent change in heart rate (beats/min) after 1 hr. The format is functional.

Regarding `Cc1[nH]c(=O)c(C#N)cc1-c1ccncc1` [MILRINONE], the “Change in heart rate” value in the experiment with Rattus norvegicus [1] worked out at 11%; in the experiment with Rattus norvegicus [2], 36%; in the experiment on Rattus norvegicus [3] it was 45%. Also, the “Change systolic BP” value in the experiment with Rattus norvegicus [4] is -47%; with Rattus norvegicus [5], -54%; with Rattus norvegicus [6] it was -65%.
With `Cl.O=C(O)c1ccc(OCCn2ccnc2)cc1` [DAZOXIBEN HYDROCHLORIDE], the Survival in the experiment listed under Mus musculus [7] was determined as 20%; in the experiment filed under Mus musculus [16] it was 10%; in the experiment filed under Mus musculus [17], 20%; in the experiment listed under Mus musculus [20], 40%. In addition, the TXB2 level at 5 µM in the experiment listed under Homo sapiens [8] was found to be 2.4%. This compound gave a survival at 9 mg/kg with Mus musculus [9] of 40%. Further, the survival at 1 mg/kg in the experiment with Mus musculus [10] worked out at 20%. Moreover, the inhibition in vivo at 100 mg/kg with Rattus norvegicus [11] is 23.4%; in the experiment on Rattus norvegicus [14], 24.6%; in the experiment on Rattus norvegicus [19] it was 50.9%. In addition, in the experiment listed under Homo sapiens [12], 50 µM produced 1.5% inhibition. The same compound showed an inhibition in vivo at 50 mg/kg in the experiment with Rattus norvegicus [13] of 74%. In addition, the survival at 12 mg/kg in the experiment with Mus musculus [15] worked out at 50%. In the experiment on Mus musculus [18], this compound displayed a survival at 30 mg/kg of 50%. In the experiment listed under Homo sapiens [21], this compound gave a 6-keto-PGF1α level at 50 µM of 25.2%.
On to `O=C1CCc2cc(-c3cccnc3)ccc2N1`, for which the “Change systolic BP” value with Rattus norvegicus [22] is -42%; with Rattus norvegicus [25] it was -28%; with Rattus norvegicus [27], -22%. In the experiment on Mus musculus [23], the survival at 10 mg/kg was 40%. For the same compound, the inhibition in vivo at 50 mg/kg in the experiment on Rattus norvegicus [24] was determined as 4.7%; with Rattus norvegicus [34], 53.2%; in the experiment with Rattus norvegicus [36], 94.7%; in the experiment on Rattus norvegicus [41], 94%. Moreover, the 50% inhibitory concentration (IC50) in the experiment listed under Homo sapiens [26] is 540 nM; in the experiment filed under Homo sapiens [29], 27000 nM; against Thromboxane-A synthase, 540 nM; against Phosphodiesterase 3, 4400 nM. Moreover, the survival at 1 mg/kg with Mus musculus [10] turned out to be 20%. In addition, the Ratio in the experiment listed under Homo sapiens [28] was 50; in the experiment filed under Homo sapiens [31], 8.1. In addition, the 6-keto-PGF1α level at 10 µM in the experiment filed under Homo sapiens [30] worked out at 31.9%. Moreover, the survival at 3 mg/kg in the experiment on Mus musculus [32] came to 40%. In the experiment filed under Homo sapiens [33], this compound had a TXB2 level at 0.1 µM of 21.1%. The compound also showed a survival at 30 mg/kg in the experiment on Mus musculus [18] of 50%. In the experiment listed under Homo sapiens [35], the 6-keto-PGF1α level at 1 µM amounted to 7.7%. Also, in the experiment listed under Homo sapiens [37], the TXB2 level at 1 µM is 14.8%. The same compound had a TXB2 level at 10 µM in the experiment filed under Homo sapiens [38] of 4.5%. Moreover, the “Change in heart rate” value is on record as 13% in the experiment with Rattus norvegicus [39], 18% in the experiment with Rattus norvegicus [40] and 13% with Rattus norvegicus [42].

The inhibition in vivo is the relative decrease from the control value, in per cent. A higher inhibition in vivo goes with strong suppression. Usually inhibition stands for the percentage by which the read-out fell short of the control. The term IC50 denotes the midpoint of a concentration-inhibition curve.
